Assay results from US20240150366A1, “4-AMINOQUINAZOLINE COMPOUND” (Astellas Pharma Inc., priority 2021, published 2024).
pIC50: −log10 of the molar value. Like-named read-outs stand apart in the source and are kept apart here.

Columns and labels:
[1] = tested on: KRAS G12D mutant-positive pancreatic cancer line AsPC-1; experiment: Non-anchorage-dependent cell growth inhibitory activity in AsPC-1 (spheroid 3D culture); type: cell-based; conditions: Homo sapiens, ASPC1, 144 h, read-out: IC50, non-anchorage-dependent cell growth inhibition
Procedure: The non-anchorage-dependent cell growth inhibitory activities of subject compounds were evaluated by spheroid 3D cell culture.
AsPC-1 cells were seeded at 36 μL/well on a low-cell-adhesive round bottom 384-well plate (Prime Surface: from Sumitomo Bakelite) to give 5×10^2 cells per well. The cell culture was performed under the same conditions as in the Test Example 2.
The next day, the subject compounds (6 points having final concentrations in the range of 10 μM to 3.0 nM) and DMSO, which was the solvent for the subject compounds, as a negative control were diluted 100-fold with a fresh medium and were each added at 4 μL per well. After culturing in the presence of 5% CO2 at 37° C. for six days, CellTiter Glo 2.0 (from Promega) was added at 20 μL per well. After stirring with a plate mixer (from FINEPCR) at normal temperature for an hour, the luminescent signals were measured with ARVO X3 (from PerkinElmer).
With the signaling value in treatment with DMSO taken as 0% inhibition and with the signaling value in the medium alone without cells taken as 100% inhibition, the 50% inhibition values (IC50) were calculated by Sigmoid-Emax model nonlinear regression analysis.

[2] = tested on: ERK phosphorylation (Thr202/Tyr204) in KRAS G12D mutant-positive pancreatic cancer line AsPC-1; experiment: ERK phosphorylation inhibitory activity in AsPC-1 (cell ELISA); type: cell-based; conditions: Homo sapiens, read-out: IC50, ERK phosphorylation inhibition
Procedure: The ERK phosphorylation inhibitory activities of subject compounds were evaluated by measuring phosphorylation of the 202th threonine (Thr202) and the 204th tyrosine (Tyr204) of ERK located downstream of the KRAS signal by cell ELISA.
AsPC-1 cells (ATCC, CRL-1682) were seeded at 36 μL/well on a 384-well plate (from Greiner bio-one) to give 2.0×10^4 cells per well. As for the cell culture conditions, RPMI-1640 medium (from Sigma-Aldrich) containing 10% fetal bovine serum (from GE Life Sciences) was used in the presence of 5% CO2 at 37° C.
The next day, the subject compounds (6 points having final concentrations in the range of 10 μM to 0.3 nM), trametinib (MEK inhibitor) of a final concentration of 1 μM as a positive control and DMSO, which was the solvent for the subject compounds, as a negative control were diluted 100-fold with a fresh medium and were each added at 4 μL per well, followed by culturing for 2 hours. After culturing, a 30% glyoxal solution (40% glyoxal [from Wako] was diluted with Phosphate Buffered Saline [PBS; from Wako) was quickly added at 30 μL per well, and the plate was allowed to stand for an hour at room temperature to thus immobilize the cells. Then, the plate was centrifuged (110× g, seven seconds, hereinafter centrifugation was performed under the same conditions unless otherwise specified) to remove the supernatant, and 0.1% Triton X-100 (from Amersham Biosciences)—containing PBS was added at 20 μL per well. After allowing the plate to stand for 10 minutes at room temperature, the supernatant was removed by centrifugation, and the same operation was further repeated. Next, 0.5% sodium dodecyl sulfate (SDS; from Invitrogen)-containing PBS was added at 20 μL per well. The plate was allowed to stand at room temperature for 30 minutes and was then centrifuged to remove the supernatant. Subsequently, a blocking solution (Intercept Blocking Buffer; from LI-COR Biosciences) was added at 20 μL per well, and the plate was allowed to stand for an hour at room temperature. The supernatant was removed by centrifugation, and an ERK (Thr202/Tyr204) phosphorylation antibody (Phospho-p44/42 MAPK (Erk 1/2) (Thr202/Tyr204) (D13.14.4E) XP Rabbit mAb; from Cell Signaling Technology) diluted 2,500-fold with the blocking solution was added at 10 μL per well as a primary antibody. The plate was allowed to stand at 4° C. overnight.
The next day, the plate was centrifuged to remove the supernatant, and 0.05% Tween-20-containing PBS (from Thermo Scientific; 20× PBS Tween-20 was diluted 20-fold with ion exchange water and used) was added at 20 μL per well. The supernatant was removed by centrifugation to thus wash each well. The washing was performed three times in total. After washing, an IRDye 800CW Goat anti-Rabbit IgG (from LI-COR Biosciences) diluted 1,000-fold with the blocking solution was added at 10 μL per well as a secondary antibody, and the plate was allowed to stand for an hour at room temperature. The plate was centrifuged to remove the supernatant, and each well was washed three times with 0.05% Tween-20-containing PBS in the same manner as after the primary antibody reaction. Centrifugation after the third washing was performed at 171×g for 17 seconds. After removing the supernatant, the plate was dried as it was with air at room temperature for three hours or more, and the 800-nm fluorescent signals were measured with Aerius (from LI-COR Biosciences).
With the signaling value at the time of addition of DMSO taken as 0% inhibition and with the signaling value at the time of addition of […] trametinib taken as 100% inhibition, the 50% inhibition values (IC50) were calculated by Sigmoid-Emax model nonlinear regression analysis.

[3] = target: KRAS G12D/SOS/c-Raf complex (Homo sapiens (Human), UniProt P01116, G12D); experiment: KRAS G12D/SOS/c-Raf complex formation inhibitory activity (TR-FRET); type: biochemical; conditions: human recombinant proteins, 1 hour at room temperature, read-out: IC50, KRAS G12D/SOS/c-Raf complex formation inhibition
KRAS G12D/SOS/c-Raf complex, sequence (P01116 other isoform, or with tags, fused parts or gaps G12D): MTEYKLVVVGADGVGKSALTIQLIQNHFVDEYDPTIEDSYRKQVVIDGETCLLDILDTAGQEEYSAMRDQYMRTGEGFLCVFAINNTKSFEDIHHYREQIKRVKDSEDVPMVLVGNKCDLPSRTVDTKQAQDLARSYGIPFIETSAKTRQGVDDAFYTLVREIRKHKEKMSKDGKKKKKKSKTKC
Procedure: Using human recombinant KRAS G12D, SOS and c-Raf proteins, the inhibitory activity of subject compounds on the complex formation of the proteins was examined by a time-resolved fluorescence resonance energy transfer (TR-FRET) method.
Biotinylated AviTag-KRAS G12D (amino acid region of 1-185, GDP) (2.5 μL; 400 nM) and subject compounds dissolved in an assay buffer (50 mM HEPES, 150 mM NaCl, 5 mM MgCl2, 0.05% Tween 20, pH 7.0) were added to a 384-well plate (from Corning) in a liquid volume of 2.5 μL at 40,000 nM to 40 nM. Son of Sevenless (SOS) (amino acid region of 564-1049, 2.5 μL; 1.3 μM) and c-Raf (amino acid region of 51-131) GST (2.5 μL; 130 nM) containing GTP (from Sigma-Aldrich; 2 μM) were added to the plate, and the plate was allowed to stand for 1 hour at room temperature. Then, a mixture liquid (10 μL) of LANCE Ulight-anti-GST (from PerkinElmer; 120 nM) and LANCE Eu-W1024 labeled Streptoavidin (from PerkinElmer; 100 ng/mL) was added, and the 620-nm and 665-nm fluorescence intensities were measured using EnVision 2104 (from PerkinElmer) under the conditions of an excitation wavelength of 337 nm. After standardizing the values with the fluorescence intensity at a reference wavelength of 620 nm, the 50% inhibitory concentrations (IC50) were calculated by Sigmoid-Emax model nonlinear regression analysis with the signaling value in treatment with the solvent taken as 0% inhibition and with the signaling value without the addition of GTP taken as 100% inhibition.

[4] = AsPC-1 spheroid 3D culture, six days, CellTiter Glo 2.0
[5] = ASPC1, AsPC-1 cells, 2 hours culture, cell ELISA

Cc1c(F)cc2[nH]ncc2c1-c1c(C2CC2)cc2c(N3C[C@@H]4C[C@H]3CN4)nc(OC3CCOCC3)nc2c1OCc1ccc(Cc2ncn(C3COC3)n2)cc1 [Example 3, 6-cyclopropyl-4-[(1S,4S)-2,5-diazabicyclo[2.2.1]heptan-2-yl]-7-(6-fluoro-5-methyl-1H-indazol-4-yl)-2-[(oxan-4-yl)oxy]-8-[(4-{[1-(oxetan-3-yl)-1H-1,2,4-triazol-3-yl]methyl}phenyl)methoxy]quinazoline]
pIC50 [1, 4]: 6.89
pIC50 [2, 5]: 7.26
pIC50 [3]: 7.12

Cc1cc(C)n2cc(Cc3ccc(COc4c(-c5c(C)c(F)cc6[nH]ncc56)c(C5CC5)cc5c(N6C[C@@H]7C[C@H]6CN7)nc(OC6CCOCC6)nc45)cc3)nc2n1 [Example 9, 6-cyclopropyl-4-[(1S,4S)-2,5-diazabicyclo[2.2.1]heptan-2-yl]-8-({4-[(5,7-dimethylimidazo[1,2-a]pyrimidin-2-yl)methyl]phenyl}methoxy)-7-(6-fluoro-5-methyl-1H-indazol-4-yl)-2-[(oxan-4-yl)oxy]quinazoline]
pIC50 [1]: 7.08
pIC50 ([2]; ASPC1, 2 h): 7.36
pIC50 [3]: 7.36

Cc1c(F)cc2[nH]ncc2c1-c1c(C2CC2)cc2c(N3C[C@@H]4C[C@H]3CN4)nc(OC3CCOCC3)nc2c1OCc1ccc(Cn2nc3n(c2=O)CCOC3)cc1 [Example 12, 2-({4-[({6-cyclopropyl-4-[(1S,4S)-2,5-diazabicyclo[2.2.1]heptan-2-yl]-7-(6-fluoro-5-methyl-1H-indazol-4-yl)-2-[(oxan-4-yl)oxy]quinazolin-8-yl}oxy)methyl]phenyl}methyl)-2,5,6,8-tetrahydro-3H-[1,2,4]triazolo[3,4-c][1,4]oxazin-3-one]
pIC50 [1]: 6.82
pIC50 ([2]; ASPC1, 2 h): 7.14
pIC50 [3]: 7.13

Cc1c(F)cc2[nH]ncc2c1-c1c(C2CC2)cc2c(N3C[C@@H]4C[C@H]3CN4)nc(OC3CCOCC3)nc2c1OCc1ccc(Cc2nnn(C)n2)cc1 [Example 16, 6-cyclopropyl-4-[(1S,4S)-2,5-diazabicyclo[2.2.1]heptan-2-yl]-7-(6-fluoro-5-methyl-1H-indazol-4-yl)-8-({4-[(2-methyl-2H-tetrazol-5-yl)methyl]phenyl}methoxy)-2-[(oxan-4-yl)oxy]quinazoline]
pIC50 [1]: 6.67
pIC50 ([2]; ASPC1, 2 h): 7.03
pIC50 [3]: 6.65

Cc1c(F)cc2[nH]ncc2c1-c1c(C2CC2)cc2c(N3C[C@@H]4C[C@H]3CN4)nc(OC3CCOCC3)nc2c1OCc1ccc(CN2CCN(C)CC2=O)cc1 [Example 2, 1-({4-[({6-cyclopropyl-4-[(1S,4S)-2,5-diazabicyclo[2.2.1]heptan-2-yl]-7-(6-fluoro-5-methyl-1H-indazol-4-yl)-2-[(oxan-4-yl)oxy]quinazolin-8-yl}oxy)methyl]phenyl}methyl)-4-methylpiperazin-2-one]
pIC50 [1, 4]: 6.78
pIC50 [2, 5]: 7.31
pIC50 [3]: 7.02

Cc1c(F)cc2[nH]ncc2c1-c1c(C2CC2)cc2c(N3C[C@@H]4C[C@H]3CN4)nc(OCc3cccnc3C(C)C)nc2c1OCc1ccc(Cn2c(=O)n(C)c3ncccc32)cc1 [Example 10, 1-[(4-{[(6-cyclopropyl-4-[(1S,4S)-2,5-diazabicyclo[2.2.1]heptan-2-yl]-7-(6-fluoro-5-methyl-1H-indazol-4-yl)-2-{[2-(propan-2-yl)pyridin-3-yl]methoxy}quinazolin-8-yl)oxy]methyl}phenyl)methyl]-3-methyl-1,3-dihydro-2H-imidazo[4,5-b]pyridin-2-one]
pIC50 [1]: 7.11
pIC50 ([2]; ASPC1, 2 h): 7.39
pIC50 [3]: 7.48

Cc1c(F)cc2[nH]ncc2c1-c1c(C2CC2)cc2c(N3C[C@@H]4C[C@H]3CN4)nc(OC3CCOCC3)nc2c1OCc1ccc(CN2CCN(C3CCOCC3)CC2=O)cc1 [Example 5, 1-({4-[({6-cyclopropyl-4-[(1S,4S)-2,5-diazabicyclo[2.2.1]heptan-2-yl]-7-(6-fluoro-5-methyl-1H-indazol-4-yl)-2-[(oxan-4-yl)oxy]quinazolin-8-yl}oxy)methyl]phenyl}methyl)-4-(oxan-4-yl)piperazin-2-one]
pIC50 [1]: 7.08
pIC50 ([2]; ASPC1, 2 h): 7.49
pIC50 [3]: 6.97

CCN1CCN(Cc2ccc(COc3c(-c4c(C)c(F)cc5[nH]ncc45)c(C4CC4)cc4c(N5C[C@@H]6C[C@H]5CN6)nc(OC5CCOCC5)nc34)cc2)C(=O)C1 [Example 4, 1-({4-[({6-cyclopropyl-4-[(1S,4S)-2,5-diazabicyclo[2.2.1]heptan-2-yl]-7-(6-fluoro-5-methyl-1H-indazol-4-yl)-2-[(oxan-4-yl)oxy]quinazolin-8-yl}oxy)methyl]phenyl}methyl)-4-ethylpiperazin-2-one]
pIC50 [1]: 7.00
pIC50 ([2]; ASPC1, 2 h): 7.43
pIC50 [3]: 7.00

Cc1c(F)cc2[nH]ncc2c1-c1c(C2CC2)cc2c(N3C[C@@H]4C[C@H]3CN4)nc(OC3CCOCC3)nc2c1OCc1ccc(CN2CCN(C(C)C)CC2=O)cc1 [Example 6, 1-({4-[({6-cyclopropyl-4-[(1S,4S)-2,5-diazabicyclo[2.2.1]heptan-2-yl]-7-(6-fluoro-5-methyl-1H-indazol-4-yl)-2-[(oxan-4-yl)oxy]quinazolin-8-yl}oxy)methyl]phenyl}methyl)-4-(propan-2-yl)piperazin-2-one]
pIC50 [1]: 7.04
pIC50 ([2]; ASPC1, 2 h): 7.44
pIC50 [3]: 7.04
